# Assays:
# SARS-CoV-2 Beta variant = test: Virucidal assay; conditions: virus pretreated with 10 μM, compared with untreated and post-treated controls
# [1] = human, in vivo; cited from earlier work
smiles,measurement,setting,value
"CCc1nc(C(N)=O)c(Nc2ccc(N3CCC(N4CCN(C)CC4)CC3)c(OC)c2)nc1NC1CCOCC1 [Gilteritinib, gilteritinib]",virucidal effect on virus viability,SARS-CoV-2 Beta variant,did not greatly reduce viability
same,clinical outcome,[1],successful remission
